Source: patent US20220347093A1, “PHARMACEUTICAL COMPOSITION” (University of Fukui, priority 2019, published 2022)

Assays:
[1] = tested on: nasal polyps specimen surgically obtained from a patient with eosinophilic sinusitis; assay: Ex vivo incubation of nasal polyps specimens, weight change before/after about 24 h; design: species or system human; conditions: 37° C.; for (A) − (B) (mg), nasal polyps weight decrease / After incubation (mg) (B), nasal polyps specimen weight: single case; for nasal polyps weight change before and after incubation (paired t-test): 6 cases
Procedure: (§1) A heparinoid (organic sulfate group 25.8 to 37.3% w/w, D-glucuronic acid 19.0 to 24.0% w/w, Maruho Co., Ltd.) dried under reduced pressure was dissolved in saline to prepare heparinoid solutions (0.3, 30 and 3,000 μg/mL). A nasal polyps specimen was surgically obtained from a patient with eosinophilic sinusitis, cut into pieces of about 5 mm squares, wiped off the moisture and measured the weight. Each specimen was transferred to a 12-well plate. The specimen in the plate was incubated with 1 mL of saline or heparinoid solutions at 37° C. for about 24 hours. Then, after wiping off the moisture in the incubated specimen taken from the plate, the weight of the specimen was measured. The difference between specimen weights before and after incubation was used as an index of a nasal polyps reduction effect. The saline group and heparinoid solution groups (different in concentration) of FIG. 1 each consisted of 6 cases.
The reduction effects of heparinoid solutions (0.003, 0.03, 0.3 and 30 μg/mL) on nasal polyps were evaluated in the same method as in Example 1. The saline group and heparinoid solution groups (different in concentration) of FIG. 2 each consisted of 6 cases.
A PPS solution (0.003 μg/mL) was prepared and the reduction effect on nasal polyps was evaluated in the same method as in Example 1. PPS used herein was sodium pentosan polysulfate (weight average molecular weight 4,000 to 6,500, sulfur content 13.0 to 20.0% w/w, glucuronic acid content 2.5 to 4.0% w/w) manufactured by Molclone Labs. The saline group and PPS solution group of FIG. 3 each consisted of 6 cases.
The following 11 types of polysaccharide solutions (polysaccharides except glucomannan: 300 μg/mL; glucomannan 30 μg/mL) were prepared and the reduction effect on nasal polyps was evaluated in the same method as in Example 1. The saline groups and polysaccharide solution groups (different in concentration) of Tables 1 to 4 each consisted of a single case. • Chondroitin (chondroitin sodium, weight average molecular weight 42,351, sulfate group content 2.6%, manufactured by Maruho Co., Ltd.) • Low-molecular chondroitin sulfate (low-molecular sodium chondroitin sulfate, weight average molecular weight 11,500, sulfate group content 8.9%, manufactured by Maruho Co., Ltd.) • Chondroitin sulfate A (sodium chondroitin sulfate A, manufactured by PG Research) • Dermatan sulfate (sodium dermatan sulfate, manufactured by Tokyo Chemical Industry Co., Ltd.) • Chondroitin sulfate C (sodium chondroitin sulfate C, manufactured by PG Research) • Glucomannan (Propol A, manufactured by Shimizu Chemical Corporation) • Dextran sulfate (sodium dextran sulfate 500,000, manufactured by FUJIFILM Wako Pure Chemical Corporation) • Keratan sulfate (sodium keratan sulfate, manufactured by PG Research) • Inulin (manufactured by Tokyo Chemical Industry Co., Ltd.) • Heparan sulfate (manufactured by Toronto Research Chemicals, Inc.) • Xylo-oligosaccharide (xylo-hexaose, manufactured by Megazyme)

[2] = tested on: nasal polyps specimen surgically obtained from a patient with non-eosinophilic sinusitis; assay: as above; design: species or system human; conditions: single case; for (A) − (B) (mg), nasal polyps weight decrease / After incubation (mg) (B), nasal polyps specimen weight: 37° C., about 24 hours; for nasal polyps weight change before and after incubation, in words: 0.03, 0.3, 30 and 300 μg/mL, individually
Procedure: as §1
In the same method as in Example 1, heparinoid solutions and PPS solutions (0.03, 0.3, 30 and 300 μg/mL, respectively) were prepared and the reduction effect on nasal polyps specimen surgically obtained from a patient with non-eosinophilic sinusitis was evaluated. The heparinoid and PPS were also the same as those used in Example 1 and Example 3, respectively. The saline groups, heparinoid solution group and PPS solution groups of Table 5 each consisted of a single case.

[3] = tested on: nasal polyps surgically obtained from patients with eosinophilic sinusitis; conditions: Non Patent Literature 5; cited from earlier work
[4] = tested on: rat nasal mucosal inflammation models; conditions: Non Patent Literature 4; cited from earlier work

## Inulin
[1]; 300 μg/mL in saline
  (A) − (B) (mg), nasal polyps weight decrease: 46.1 mg
  After incubation (mg) (B), nasal polyps specimen weight: 85.3 mg

## low-molecular sodium chondroitin sulfate [Low-molecular chondroitin sulfate]
[1]; 300 μg/mL in saline
  (A) − (B) (mg), nasal polyps weight decrease: 25.0 mg
  After incubation (mg) (B), nasal polyps specimen weight: 116.0 mg

## sodium chondroitin sulfate C
[1]; 300 μg/mL in saline
  (A) − (B) (mg), nasal polyps weight decrease: 44.0 mg
  After incubation (mg) (B), nasal polyps specimen weight: 80.0 mg

## sodium keratan sulfate
[1]; 300 μg/mL in saline
  (A) − (B) (mg), nasal polyps weight decrease: 18.3 mg
  After incubation (mg) (B), nasal polyps specimen weight: 147.3 mg

## sodium chondroitin sulfate A
[1]; 300 μg/mL in saline
  (A) − (B) (mg), nasal polyps weight decrease: 38.0 mg
  After incubation (mg) (B), nasal polyps specimen weight: 68.0 mg

## heparinoid
[1]; 0.003 μg/mL
  nasal polyps weight change before and after incubation (paired t-test): decreased significantly
[1]; 0.03 μg/mL
  nasal polyps weight change before and after incubation (paired t-test): decreased significantly
[1]; 0.3 μg/mL
  nasal polyps weight change before and after incubation (paired t-test): decreased significantly
[1]; 30 μg/mL
  nasal polyps weight change before and after incubation (paired t-test): decreased significantly
[1]; 3,000 μg/mL
  nasal polyps weight change before and after incubation (paired t-test): decreased significantly
[2]; 0.03 μg/mL
  (A) − (B) (mg), nasal polyps weight decrease: 35.0 mg
  After incubation (mg) (B), nasal polyps specimen weight: 276.0 mg
[2]; 0.3 μg/mL
  (A) − (B) (mg), nasal polyps weight decrease: 28.0 mg
  After incubation (mg) (B), nasal polyps specimen weight: 181.0 mg
[2]; 30 μg/mL
  (A) − (B) (mg), nasal polyps weight decrease: 66.0 mg
  After incubation (mg) (B), nasal polyps specimen weight: 169.0 mg
[2]; 300 μg/mL
  (A) − (B) (mg), nasal polyps weight decrease: 30.0 mg
  After incubation (mg) (B), nasal polyps specimen weight: 246.0 mg
[2]
  nasal polyps weight change before and after incubation, in words: remarkably decreased

## OC1OC[C@@H](O[C@@H]2OC[C@@H](O[C@@H]3OC[C@@H](O[C@@H]4OC[C@@H](O[C@@H]5OC[C@@H](O[C@@H]6OC[C@@H](O)[C@H](O)[C@H]6O)[C@H](O)[C@H]5O)[C@H](O)[C@H]4O)[C@H](O)[C@H]3O)[C@H](O)[C@H]2O)[C@H](O)[C@H]1O (stereo partly shown) [Xylo-oligosaccharide, xylo-hexaose]
[1]; 300 μg/mL in saline
  (A) − (B) (mg), nasal polyps weight decrease: 17.9 mg
  After incubation (mg) (B), nasal polyps specimen weight: 110.4 mg

## chondroitin sodium
[1]; 300 μg/mL in saline
  (A) − (B) (mg), nasal polyps weight decrease: 32.8 mg
  After incubation (mg) (B), nasal polyps specimen weight: 122.0 mg

## heparin
[3]
  reduction effect on nasal polyps: did not show a reduction effect
[4]
  neutrophil infiltration: significantly suppress
  production of mucus: significantly suppress

## Glucomannan
[1]; 30 μg/mL in saline
  (A) − (B) (mg), nasal polyps weight decrease: 19.0 mg
  After incubation (mg) (B), nasal polyps specimen weight: 81.0 mg

## sodium dextran sulfate 500,000
[1]; 300 μg/mL in saline
  (A) − (B) (mg), nasal polyps weight decrease: 22.0 mg
  After incubation (mg) (B), nasal polyps specimen weight: 120.0 mg

## Heparan sulfate
[1]; 300 μg/mL in saline
  (A) − (B) (mg), nasal polyps weight decrease: 25.5 mg
  After incubation (mg) (B), nasal polyps specimen weight: 103.0 mg

## sodium dermatan sulfate
[1]; 300 μg/mL in saline
  (A) − (B) (mg), nasal polyps weight decrease: 13.1 mg
  After incubation (mg) (B), nasal polyps specimen weight: 118.5 mg

## sodium pentosan polysulfate [PPS]
[1]; 0.003 μg/mL
  nasal polyps weight change before and after incubation (paired t-test): decreased significantly
[2]; 0.03 μg/mL
  (A) − (B) (mg), nasal polyps weight decrease: 19.0 mg
  After incubation (mg) (B), nasal polyps specimen weight: 214.0 mg
[2]; 0.3 μg/mL
  (A) − (B) (mg), nasal polyps weight decrease: 48.0 mg
  After incubation (mg) (B), nasal polyps specimen weight: 225.0 mg
[2]; 30 μg/mL
  (A) − (B) (mg), nasal polyps weight decrease: 13.0 mg
  After incubation (mg) (B), nasal polyps specimen weight: 207.0 mg
[2]; 300 μg/mL
  (A) − (B) (mg), nasal polyps weight decrease: 10.0 mg
  After incubation (mg) (B), nasal polyps specimen weight: 115.0 mg
[2]
  nasal polyps weight change before and after incubation, in words: remarkably decreased
